Experimental data published in the supplement of paper PMC10307832.

Legend:
Experiment in all cases: relative viability (nuclei count vs DMSO), 5 days (fraction); higher = more cells survive
[1] = compound: CCC1=CN=CN=C1N2CCN(CC2)CC3=NC4=C(N3)C=C(C=C4)C(F)(F)F + CC(=O)c1c(C)c2cnc(Nc3ccc(N4CCNCC4)cn3)nc2n(C2CCCC2)c1=O [Palbociclib] (partner 0.5 µM)
Outline: (§1)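 Relative viability is defined as nuclei in treated wells over nuclei in vehicle wells. Duplicate plates were run and medians reported. Lung cancer cell lines in 1536-well plates were dosed by pin tool one day after seeding, with one drug or with a fixed anchor-drug dose plus five library-drug doses (not always all listed) in √10 steps, and nuclei were counted after 5 days.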

[2] = compound: CCC1=CN=CN=C1N2CCN(CC2)CC3=NC4=C(N3)C=C(C=C4)C(F)(F)F + CS(=O)(=O)N1CCN(Cc2cc3nc(-c4cccc5[nH]ncc45)nc(N4CCOCC4)c3s2)CC1 [Pictilisib] (partner 1 µM)
Outline: as §1

[3] = compound: CCn1c(-c2nonc2N)nc2cnc(Oc3cccc(NC(=O)c4ccc(OCCN5CCOCC5)cc4)c3)cc21 + CS(=O)(=O)CCNCc1ccc(-c2ccc3ncnc(Nc4ccc(OCc5cccc(F)c5)c(Cl)c4)c3c2)o1 [Lapatinib] (partner 2 µM)
Outline: as §1

[4] = compound: CCn1c(-c2nonc2N)nc2cnc(Oc3cccc(NC(=O)c4ccc(OCCN5CCOCC5)cc4)c3)cc21 + O=C(c1cc(Cc2n[nH]c(=O)c3ccccc23)ccc1F)N1CCN(C(=O)C2CC2)CC1 [Olaparib] (partner 8 µM)
Outline: as §1

Cell Line | relative viability ([1]; first compound 0.04 µM) | relative viability ([1]; first compound 0.1265 µM) | relative viability ([1]; first compound 0.4 µM) | relative viability ([1]; first compound 1.265 µM) | relative viability ([1]; first compound 4 µM) | relative viability ([2]; first compound 0.04 µM) | relative viability ([2]; first compound 0.1265 µM) | relative viability ([2]; first compound 0.4 µM) | relative viability ([2]; first compound 4 µM) | relative viability ([3]; first compound 0.04 µM) | relative viability ([3]; first compound 0.1265 µM) | relative viability ([3]; first compound 0.4 µM) | relative viability ([3]; first compound 1.265 µM) | relative viability ([3]; first compound 4 µM) | relative viability ([4]; first compound 0.04 µM) | relative viability ([4]; first compound 0.1265 µM) | relative viability ([4]; first compound 0.4 µM) | relative viability ([4]; first compound 1.265 µM) | relative viability ([4]; first compound 4 µM) | relative viability ([2]; first compound 1.265 µM)
HCC-366 | 0.319 | 0.328 | 0.321 | 0.34 | 0.383 | 0.242 | 0.124 | 0.133 | 0.134 | 1.25 | 1.01 | 0.251 | 0.0431 | 0.0373 | 0.334 | 0.303 | 0.416 | 0.0675 | 0.0475 | 
NCI-H2405 | 0.578 | 0.53 | 0.513 |  | 0.594 | 0.486 | 0.379 | 0.43 | 0.575 | 1.19 | 0.661 | 0.194 | 0.336 | 0.316 | 0.883 | 0.57 | 0.341 | 0.258 | 0.287 | 
LXF-289 | 0.624 | 0.583 | 0.615 | 0.635 | 0.559 | 0.744 | 0.793 | 0.762 | 0.754 | 1.04 | 1.02 | 0.856 | 0.737 | 0.645 | 1.07 | 1.22 | 1.01 | 1.12 | 0.984 | 0.646
NCI-H1793 | 0.248 | 0.294 | 0.29 | 0.269 | 0.279 | 0.329 | 0.304 | 0.428 | 0.328 | 0.555 | 0.569 | 0.582 | 0.414 | 0.418 | 0.824 | 0.994 | 0.756 | 0.52 | 0.363 | 
LU99A | 0.428 | 0.431 | 0.378 | 0.439 | 0.435 | 0.369 | 0.287 | 0.363 | 0.321 | 1.15 | 0.845 | 0.641 | 0.862 | 0.694 | 0.313 | 0.299 | 0.262 | 0.256 | 0.244 | 0.346
PC-3 [JPC-3] |  | 0.53 | 0.56 | 0.565 | 0.543 | 0.704 | 0.657 | 0.604 | 0.697 | 0.527 | 0.499 | 0.438 | 0.573 | 0.522 | 1.13 | 1.14 | 0.966 | 0.746 | 0.861 | 0.739
NCI-H2085 | 0.371 | 0.398 | 0.473 | 0.488 | 0.442 | 0.468 | 0.426 | 0.412 | 0.429 | 0.865 | 0.75 | 0.684 | 0.602 | 0.714 | 0.832 | 0.693 | 0.632 | 0.573 | 0.559 | 0.296
NCI-H2170 | 0.397 | 0.402 | 0.375 | 0.385 | 0.386 | 0.303 | 0.304 | 0.274 | 0.325 | 0.261 | 0.278 | 0.274 | 0.258 | 0.27 | 0.629 | 0.661 | 0.629 | 0.549 | 0.415 | 0.289
HCC-78 | 0.447 | 0.461 | 0.477 | 0.451 | 0.468 | 0.143 | 0.299 | 0.203 | 0.178 | 0.905 | 0.906 | 0.461 | 0.816 | 0.756 | 0.789 | 0.97 |  | 0.832 | 0.946 | 0.206
NCI-H1395 | 0.598 | 0.596 | 0.637 |  | 0.665 | 0.59 | 0.553 | 0.619 | 0.646 | 1.22 | 0.92 | 0.632 | 0.418 | 0.57 | 0.384 | 0.41 | 0.401 | 0.374 | 0.352 | 0.572
NCI-H2228 |  | 0.595 | 0.684 | 0.472 | 0.877 | 0.383 | 0.397 | 0.297 | 0.436 | 1.79 | 0.81 | 0.954 | 0.756 | 0.727 | 1.13 | 0.742 | 0.776 | 0.671 | 0.544 | 0.309
H3255 | 0.313 | 0.308 | 0.325 | 0.292 | 0.343 | 0.5 | 0.507 | 0.446 | 0.455 | 0.293 | 0.305 | 0.237 | 0.271 | 0.256 | 0.532 | 0.542 | 0.501 | 0.364 | 0.383 | 0.423
HCC-15 | 0.717 | 0.723 | 0.646 | 0.612 | 0.682 | 0.667 | 0.676 | 0.677 | 0.805 | 0.962 | 0.736 | 0.779 | 0.628 | 0.745 | 0.745 | 0.737 | 0.766 | 0.581 | 0.542 | 0.532
NCI-H727 | 0.688 | 0.644 | 0.526 | 0.576 | 0.661 | 0.521 | 0.377 | 0.29 | 0.382 | 1.12 | 0.894 | 0.339 | 0.868 | 0.569 |  | 0.801 | 0.657 | 0.487 | 0.59 | 
NCI-H2009 | 0.195 | 0.238 | 0.184 | 0.15 | 0.0584 | 0.821 | 0.824 | 0.826 | 0.544 | 1.02 | 0.957 | 0.575 | 0.312 | 0.314 | 0.605 | 0.566 | 0.549 | 0.486 | 0.334 | 0.514
HCC-44 | 0.965 | 0.956 | 0.991 | 0.937 | 0.859 | 0.584 | 0.593 | 0.557 | 0.596 | 1.07 | 1.1 | 0.622 | 0.342 | 0.368 | 1.07 | 0.996 | 0.945 | 0.999 | 0.802 | 0.477
COR-L23 | 0.234 | 0.298 | 0.259 | 0.254 | 0.282 | 0.696 | 0.71 | 0.676 | 0.769 | 1.16 | 0.714 | 0.335 | 0.198 | 0.143 | 0.346 | 0.301 | 0.269 | 0.145 | 0.124 | 0.632
